From paper PMC9637222, “Autoinducer-2 and bile salts induce c-di-GMP synthesis to repress the T3SS via a T3SS chaperone” (Nature Communications, 2022)
“And” between values parts separate entries of the source, which are not always exact repeats. Equal values may be shown once. “Also recorded” adds a separate entry of the source. Read-outs that look alike come from different tables or passages of the source.

Key:
SicA = molecular target: T1, SicA (Salmonella typhimurium, UniProt P69066); assay: ITC: nucleotide (c-di-GMP, c-di-AMP, cGMP) binding to SicA; design: species or system S. Typhimurium; conditions: same experimental conditions as c-di-GMP
T1 construct: His6 (N, cleaved yes); made in house; host or cells: E. coli BL21(DE3), pET-28a (pET28a-sicA)
T1 sequence (P69066 whole entry): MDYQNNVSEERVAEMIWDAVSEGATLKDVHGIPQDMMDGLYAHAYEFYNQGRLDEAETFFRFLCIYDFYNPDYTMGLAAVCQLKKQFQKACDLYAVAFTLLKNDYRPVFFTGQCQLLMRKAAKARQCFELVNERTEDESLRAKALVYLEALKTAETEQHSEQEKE

YedQ-LBD = molecular target: T2, YedQ-LBD (Salmonella typhimurium, UniProt Q8ZNT5); assay: biochemical; format: binding, S. Typhimurium
T2 construct: the periplasmic LBD (residues 43–357) of YedQ is structurally not well defined; His6 (N, cleaved yes); made in house; host or cells: E. coli BL21(DE3) or its luxS deletion derivative, pET-28a
T2 sequence (Q8ZNT5 43-357): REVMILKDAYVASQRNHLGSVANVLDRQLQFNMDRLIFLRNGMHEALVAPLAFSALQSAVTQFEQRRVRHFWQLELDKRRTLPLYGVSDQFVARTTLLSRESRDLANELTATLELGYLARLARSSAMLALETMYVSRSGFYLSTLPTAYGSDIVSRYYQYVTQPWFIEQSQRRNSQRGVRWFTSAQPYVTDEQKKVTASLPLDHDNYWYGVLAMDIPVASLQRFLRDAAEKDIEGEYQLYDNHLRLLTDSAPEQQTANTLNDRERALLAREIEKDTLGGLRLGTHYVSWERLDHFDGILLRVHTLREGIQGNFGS
Protocol: (§1) ITC measurements were carried out at 20 °C with a Nano ITC Standard Volume isothermal calorimeter (TA Instruments, New Castle, DE) controlled by the ITCRun software. The N-terminal His6 tags of all purified proteins were removed before ITC analysis. For titrations with DPD/AI-2 (Omm Scientific), the tag-free proteins were dialyzed against a Tris buffer (25 mM Tris-HCl, 150 mM NaCl, pH 7.5) and diluted to 70 μM, while DPD/AI-2 was diluted with the same buffer to 700 μM. […] After being degassed, 1 ml of the protein and 250 μl of the ligand solution were added to the sample cell and the syringe, respectively. There were 25 injections per experiment and the stirring speed was 200 rpm. In control experiments, the ligand solution was titrated into the buffer in the sample cell to obtain the heat of dilution. Microcalorimetric data were corrected by subtracting the heats of dilution and fit to the independent binding site model using the NanoAnalyze software.

YedQ = test system: T3, YedQ; assay: In vitro DGC activity assay of YedQ (membrane fractions, HPLC of c-di-GMP); format: biochemical, S. Typhimurium; conditions: for Effect on DGC activity of YedQ in c-di-GMP synthesis (in words): in vitro, membrane fractions
T3 construct: Preparation of membrane fractions containing full-length YeaJ and YedQ; made in house; host or cells: ΔluxS mutant of E. coli BL21(DE3), membrane fractions

S. Typhimurium [1] = assay: Cellular c-di-GMP quantification by LC-MS/MS; format: cell-based; conditions: 1 μM; for c-di-GMP (fmol/107 cells): strain WT(Vector), Fig. 4e; for Change of intracellular c-di-GMP levels (in words): wild-type strain; for Induction of intracellular c-di-GMP levels (in words): ΔyedQ mutant
Protocol: For stimulation with AI-2, the DPD/AI-2 solution was added to the shaking culture at OD600 of 1.3, followed by another 30 min of incubation at 37 °C. For induction by porcine bile salts and individual bile components (Sigma-Aldrich), substances were added to the static culture at OD600 of 1.1, followed by another 30 min of incubation at 37 °C. About 15 ml of culture was centrifuged and the cells were washed twice with phosphate-buffered saline (PBS, pH 7.0). The cell pellets were resuspended in 500 μl of extraction solution (acetonitrile/methanol/water, 40:40:20, v/v/v) and cooled on ice for 15 min. The samples were boiled for 10 min at 95 °C and then cooled again on ice for 15 min. After centrifugation at 20,000×g and 4 °C for 10 min, supernatants were transferred to new tubes on ice. The remaining pellets were used for two more extraction steps with 500 μl of the extraction solution without heating. Pooled supernatants for each sample were lyophilized, and pellets were resolubilized in 200 μl of distilled water. C-di-GMP concentrations were then measured by LC-MS/MS[63] (AB SCIEX QTRAP 6500+ LC-MS/MS System). Intracellular levels of c-di-GMP were normalized to the number of bacterial cells for each sample.

WP_010904779-LBD = molecular target: T4, WP_010904779-LBD (Escherichia coli O157:H7, UniProt Q8XB92); assay: biochemical; format: binding, EHEC O157:H7; conditions: for Binding affinity (in words) / Kd: ITC; for Binding affinity (in words): LBD of the YedQ homolog from EHEC O157:H7
T4 construct: His6 (N, cleaved yes); made in house; host or cells: E. coli BL21(DE3) or its luxS deletion derivative
T4 sequence (Q8XB92 43-357 limits assumed): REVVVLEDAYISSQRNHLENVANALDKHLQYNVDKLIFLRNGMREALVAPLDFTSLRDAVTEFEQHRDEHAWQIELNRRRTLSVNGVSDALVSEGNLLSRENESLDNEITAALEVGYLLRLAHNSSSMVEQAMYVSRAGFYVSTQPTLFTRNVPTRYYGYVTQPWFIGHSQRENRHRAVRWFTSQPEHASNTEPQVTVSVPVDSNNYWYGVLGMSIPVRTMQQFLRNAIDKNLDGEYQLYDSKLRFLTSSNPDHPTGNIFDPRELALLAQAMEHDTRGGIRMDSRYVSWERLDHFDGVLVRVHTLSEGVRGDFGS
Protocol: as §1
The binding affinity was evaluated by ITC analysis. ITC data and plots of injected heat for automatic
WP_010904779-LBD are shown in the upper and lower plots, respectively. The binding curves were
corrected for the dilution effects in the finalanalysis.
Kd and binding stoichiometry (n) are presented as mean ± s.d. of three

S. Typhimurium [2] = assay: Biofilm formation (crystal violet staining); format: cell-based; conditions: for Biofilm formation (in words): strain SL1344, individual components of bile salts; for OD590: 1 μM, Fig. 4c
Protocol: Biofilm formation was measured by crystal violet staining. In brief, overnight cultures of S. Typhimurium strains were diluted with fresh LB medium to an OD600 of 0.05, and 200 μl aliquots of the diluted cells were inoculated into each well of a sterile flat-bottomed 96-well polystyrene microtiter plate. After incubation at 37 °C for 24 h without shaking, culture supernatants were removed, and the wells were washed twice with sterilized water. Cells adhering to the wells were then stained with 0.1% (w/v) crystal violet for 15 min, followed by two washes using distilled water to remove unbound dye. […] For swimming motility assay, overnight cultures of S. Typhimurium strains were diluted to an OD600 of 0.5, and 2 μl aliquots of the diluted cells were spotted onto 0.3% tryptone agar (1% tryptone, 0.5% NaCl, and 0.3% Bacto agar [Difco]). Motility halos were measured after the plates were incubated at 37 °C for 12 h.

YedQ-LBD L289A = YedQ-LBD L289A (Salmonella typhimurium, UniProt Q8ZNT5, L289A); assay: biochemical
YedQ-LBD L289A, sequence (Q8ZNT5 43-357 L289A): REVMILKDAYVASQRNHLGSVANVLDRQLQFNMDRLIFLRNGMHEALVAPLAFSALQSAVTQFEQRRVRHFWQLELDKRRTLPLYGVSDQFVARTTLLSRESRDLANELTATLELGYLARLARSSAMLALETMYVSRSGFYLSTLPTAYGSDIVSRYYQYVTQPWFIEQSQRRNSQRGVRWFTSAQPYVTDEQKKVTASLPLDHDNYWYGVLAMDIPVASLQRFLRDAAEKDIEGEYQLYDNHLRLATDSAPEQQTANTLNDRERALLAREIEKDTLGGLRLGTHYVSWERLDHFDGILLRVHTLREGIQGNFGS
Protocol: as §1
(§2) The binding affinitywas evaluated using ITC analysis. ITC data and plots of injected heat for injections
(§3) binding curves were corrected for the dilution effects in the final analysis.
(§4) The Kd and binding stoichiometry
(§5) (n)values were presented as mean ± s.d. of three independent experiments. Source data are provided

YedQ-LBD L288A = YedQ-LBD L288A (Salmonella typhimurium, UniProt Q8ZNT5, L288A); assay: biochemical
YedQ-LBD L288A, sequence (Q8ZNT5 43-357 L288A): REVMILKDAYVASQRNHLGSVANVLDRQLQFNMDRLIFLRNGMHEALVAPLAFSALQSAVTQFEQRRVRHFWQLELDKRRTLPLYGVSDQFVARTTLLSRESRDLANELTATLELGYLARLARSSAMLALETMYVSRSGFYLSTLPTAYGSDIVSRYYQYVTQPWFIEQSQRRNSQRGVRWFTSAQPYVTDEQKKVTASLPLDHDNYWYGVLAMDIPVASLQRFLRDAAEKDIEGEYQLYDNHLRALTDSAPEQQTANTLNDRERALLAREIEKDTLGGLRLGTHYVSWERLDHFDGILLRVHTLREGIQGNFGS
Protocol: as §1, §2, §3, §4, §5

YedQ-LBD K236A = YedQ-LBD K236A (Salmonella typhimurium, UniProt Q8ZNT5, K236A); assay: biochemical
YedQ-LBD K236A, sequence (Q8ZNT5 43-357 K236A): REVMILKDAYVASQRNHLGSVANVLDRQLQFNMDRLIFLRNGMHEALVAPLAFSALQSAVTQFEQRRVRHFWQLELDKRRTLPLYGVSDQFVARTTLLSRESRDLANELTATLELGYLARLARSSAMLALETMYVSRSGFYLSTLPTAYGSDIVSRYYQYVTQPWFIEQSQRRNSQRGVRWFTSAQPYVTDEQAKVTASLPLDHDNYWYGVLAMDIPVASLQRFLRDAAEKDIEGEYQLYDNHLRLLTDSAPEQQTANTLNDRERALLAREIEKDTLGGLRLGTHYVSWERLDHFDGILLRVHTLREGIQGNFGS
Protocol: as §1, §2, §3, §4, §5

YedQ-LBD D233A = YedQ-LBD D233A (Salmonella typhimurium, UniProt Q8ZNT5, D233A); assay: biochemical
YedQ-LBD D233A, sequence (Q8ZNT5 43-357 D233A): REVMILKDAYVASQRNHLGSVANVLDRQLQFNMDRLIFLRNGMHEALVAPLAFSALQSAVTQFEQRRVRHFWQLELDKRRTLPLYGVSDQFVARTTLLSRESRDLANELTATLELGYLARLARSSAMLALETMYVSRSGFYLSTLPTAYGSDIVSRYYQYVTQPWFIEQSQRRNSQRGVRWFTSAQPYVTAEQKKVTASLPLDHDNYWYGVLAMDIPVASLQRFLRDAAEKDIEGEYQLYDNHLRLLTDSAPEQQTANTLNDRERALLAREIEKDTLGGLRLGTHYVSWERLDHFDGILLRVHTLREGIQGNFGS
Protocol: as §1, §2, §3, §4, §5

YedQ-LBD Q264A = YedQ-LBD Q264A (Salmonella typhimurium, UniProt Q8ZNT5, Q264A); assay: biochemical
YedQ-LBD Q264A, sequence (Q8ZNT5 43-357 Q264A): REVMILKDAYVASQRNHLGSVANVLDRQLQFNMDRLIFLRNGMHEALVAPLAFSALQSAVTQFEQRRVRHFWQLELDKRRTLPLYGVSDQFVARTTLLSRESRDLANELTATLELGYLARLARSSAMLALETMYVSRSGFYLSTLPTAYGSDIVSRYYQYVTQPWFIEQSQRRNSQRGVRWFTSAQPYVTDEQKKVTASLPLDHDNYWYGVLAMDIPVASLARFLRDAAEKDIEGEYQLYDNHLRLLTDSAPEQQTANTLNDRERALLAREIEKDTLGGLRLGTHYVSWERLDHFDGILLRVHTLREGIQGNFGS
Protocol: as §1, §2, §3, §4, §5

Row | Compound | Binding to SicA (in words) (SicA) | Concentration of c-di-GMP (YedQ; 100 μM, 30 min) | Concentration of c-di-GMP (YedQ; 100 μM, 60 min) | Concentration of c-di-GMP (YedQ; 200 μM, 30 min) | Concentration of c-di-GMP (YedQ; 200 μM, 60 min) | Effect on DGC activity of YedQ in c-di-GMP synthesis (in words) (YedQ) | c-di-GMP (fmol/107 cells) (S. Typhimurium [1]) | Change of intracellular c-di-GMP levels (in words) (S. Typhimurium [1]) | Induction of intracellular c-di-GMP levels (in words) (S. Typhimurium [1]) | Binding affinity (in words) (WP_010904779-LBD) | Biofilm formation (in words) (S. Typhimurium [2]) | OD590 (S. Typhimurium [2]) | further results
1 | Nc1ncnc2c1ncn2[C@@H]1O[C@@H]2COP(=O)(O)O[C@H]3[C@@H](O)[C@H](n4cnc5c(N)ncnc54)O[C@@H]3COP(=O)(O)O[C@H]2[C@H]1O [c-di-AMP] | no binding |  |  |  |  |  |  |  |  |  |  |  | 
2 | C[C@H](CCC(=O)NCCS(=O)(=O)O)[C@H]1CC[C@H]2[C@@H]3CC[C@@H]4C[C@H](O)CC[C@]4(C)[C@H]3C[C@H](O)[C@]12C [taurodeoxycholate] |  | 22.89 µM and 24.25 µM and 23.52 µM | 34.75 µM and 35.42 µM and 35.31 µM | 37.84 µM and 36.56 µM and 37.20 µM | 46.63 µM and 47.86 µM and 45.57 µM | induce the DGC activity | 78.56 fmol/107 cells and 82.79 fmol/107 cells and 79.80 fmol/107 cells | significant increase | completely abolished | high binding; also recorded: high affinity | significantly stimulated biofilm formation |  | Kd (YedQ-LBD; ITC, YedQ-LBD WT, mean ± s.d. of three independent experiments, read-out: Kd): 0.14 ± 0.02 µM; Kd (YedQ-LBD; binding to YedQ-LBD (WT), read-out: Kd): 0.15 µM and 0.17 µM and 0.11 µM; n, Taurodeoxycholate binding to WP_010904779-LBD (WP_010904779-LBD; ITC binding stoichiometry n, individual replicates, Supplementary Figure 24b): 1.13 and 1.09 and 1.12; Kd (WP_010904779-LBD; Taurodeoxycholate binding to WP_010904779-LBD, individual replicates, Supplementary Figure 24b): 0.13 µM and 0.17 µM and 0.19 µM
3 | C[C@H](CCC(=O)NCC(=O)O)[C@H]1CC[C@H]2[C@@H]3[C@H](O)C[C@@H]4C[C@H](O)CC[C@]4(C)[C@H]3C[C@H](O)[C@]12C [Glycocholate] |  |  |  |  |  |  |  |  |  |  |  | 2.14 | 
4 | C[C@H](CCC(=O)O)[C@H]1CC[C@H]2[C@@H]3[C@H](O)C[C@@H]4C[C@H](O)CC[C@]4(C)[C@H]3C[C@H](O)[C@]12C [Cholate] |  |  |  |  |  |  |  |  |  |  |  | 2.29 and 2.20 and 2.14 | 
5 | Nc1nc2c(ncn2[C@@H]2O[C@@H]3COP(=O)(O)O[C@H]3[C@H]2O)c(=O)[nH]1 [cGMP] | no binding |  |  |  |  |  |  |  |  |  |  |  | 
6 | C[C@H](CCC(=O)NCCS(=O)(=O)O)[C@H]1CC[C@H]2[C@@H]3[C@H](O)C[C@@H]4C[C@H](O)CC[C@]4(C)[C@H]3C[C@H](O)[C@]12C [taurocholate] |  | 22.83 µM and 22.66 µM and 23.00 µM | 34.84 µM and 35.29 µM and 36.56 µM | 39.61 µM and 38.40 µM and 39.33 µM | 45.78 µM and 46.73 µM and 45.87 µM | induce the DGC activity | 57.59 fmol/107 cells and 62.54 fmol/107 cells and 56.52 fmol/107 cells | significant increase | completely abolished | high binding; also recorded: high affinity | significantly stimulated biofilm formation |  | n, Taurocholate binding to YedQ-LBDL289A (YedQ-LBD L289A; ITC binding stoichiometry n, individual replicates, Supplementary Figure 11e): 1.18 and 1.14 and 1.16; Kd (YedQ-LBD L289A; Kd (μM), binding to YedQ-LBD L289A): 7.7 µM and 6.8 µM and 7.2 µM; n, Taurocholate binding to YedQ-LBDL288A (YedQ-LBD L288A; ITC binding stoichiometry n, individual replicates, Supplementary Figure 11d): 1.10 and 1.02 and 1.07; Kd (YedQ-LBD L288A; Kd (μM), binding to YedQ-LBD L288A): 18 µM and 21 µM and 24 µM; Kd (YedQ-LBD K236A; Binding affinity Kd (μM), ITC, YedQ-LBD K236A, mean ± s.d.): 27 ± 2 µM; n, Taurocholate binding to YedQ-LBDK236A (YedQ-LBD K236A; ITC binding stoichiometry n, individual replicates, Supplementary Figure 11b): 1.04 and 1.09 and 1.01; Kd (YedQ-LBD K236A; Kd (μM), binding to YedQ-LBD K236A): 24 µM and 26 µM and 30 µM; Kd (YedQ-LBD D233A; Binding affinity Kd (μM), ITC, YedQ-LBD D233A, mean ± s.d.): 18 ± 1 µM; n, Taurocholate binding to YedQ-LBDD233A (YedQ-LBD D233A; ITC binding stoichiometry n, individual replicates, Supplementary Figure 11a): 1.11 and 1.16 and 1.13; Kd (YedQ-LBD D233A; Kd (μM), binding to YedQ-LBD D233A): 18 µM and 16 µM; Kd (YedQ-LBD D233A; Kd, Taurocholate binding to YedQ-LBDD233A, ITC, individual replicates, Supplementary Figure 11a): 18 µM; n, Taurocholate binding to YedQ-LBDQ264A (YedQ-LBD Q264A; ITC binding stoichiometry n, individual replicates, Supplementary Figure 11c): 1.07 and 1.18 and 1.00; Kd (YedQ-LBD Q264A; Kd (μM), binding to YedQ-LBD Q264A): 14 µM and 12 µM and 15 µM; Kd (YedQ-LBD; Kd (μM), binding to YedQ-LBD (WT)): 0.2 µM and 0.13 µM and 0.16 µM; Kd (YedQ-LBD; Kd, ITC, YedQ-LBD WT, mean ± s.d. of three independent experiments): 0.17 ± 0.03 µM; n, Taurocholate binding to WP_010904779-LBD (WP_010904779-LBD; ITC binding stoichiometry n, individual replicates, Supplementary Figure 24a): 1.06 and 1.08 and 1.12; Kd (WP_010904779-LBD; Taurocholate binding to WP_010904779-LBD, individual replicates, Supplementary Figure 24a): 0.19 µM and 0.22 µM and 0.23 µM
